Source: patent US7626021B2, “Fused ring heterocycle kinase modulators” (SGX Pharmaceuticals, Inc., priority 2004, dated 2009)

Target: T1, Abl Y393F (Mus musculus, UniProt P00520, Y393F)
T1 construct: 0.4 μg/ml Abl kinase domain; Met-Ser-Leu (vector-derived) (N); made in house
T1 sequence (P00520 242-493 Y393F limits assumed): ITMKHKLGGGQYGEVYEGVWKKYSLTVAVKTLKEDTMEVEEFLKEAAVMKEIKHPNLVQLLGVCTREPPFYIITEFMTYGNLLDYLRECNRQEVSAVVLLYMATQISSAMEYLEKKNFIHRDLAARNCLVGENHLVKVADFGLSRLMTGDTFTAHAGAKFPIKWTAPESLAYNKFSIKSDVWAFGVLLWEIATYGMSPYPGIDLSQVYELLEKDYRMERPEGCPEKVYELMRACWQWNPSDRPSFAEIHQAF
Assay: Abl Y393F kinase enzyme assay
Assay type: biochemical
Conditions: read-out: Abl_Y393F IC50
Source text: Although the first of these examples uses the kinase domain of a mutant form of Abl T315I (“Abl T315I KD”), the kinase assays may use various forms of mutant and wild type enzymes, including, for example, the entire protein, the kinase domain, or a portion thereof (e.g. Abl Y393F). The kinases used in the assays may also be of varying phosphorylation states. In the c-Abl example, a mutant kinase at a zero phosphorylation state was used.
In addition to the c-Abl PK/LDH coupled assay (above), homogeneous luminescence-based inhibitor screening assays were developed for c-Abl, MET, AurA, and PDK1 kinases (among others). Each of these assays made use of an ATP depletion assay (Kinase-Glo™, Promega Corporation, Madison, Wis.) to quantitate kinase activity. The Kinase-Glo™ format uses a thermostable luciferase to generate luminescent signal from ATP remaining in solution following the kinase reaction. The luminescent signal is inversely correlated with the amount of kinase activity.
cAbl Luminescence-Based Enzyme Assay
Materials: Abl substrate peptide=EAIYAAPFAKKK SEQ ID NO:1)-OH (Biopeptide, San Diego, Calif.), ATP (Sigma Cat#A-3377, FW=551), HEPES buffer, pH 7.5, Bovine serum albumin (BSA) (Roche 92423420), MgCl2, Staurosporine (Streptomyces sp. Sigma Cat#85660-1MG), white Costar 384-well flat-bottom plate (VWR Cat#29444-088), Abl kinase (see below), Kinase-Glo™ (Promega Cat#V6712).
Stock Solutions: 10 mM Abl substrate peptide (13.4 mg/ml in miliQH2O) stored at −20° C.; 100 mM HEPES buffer, pH 7.5 (5 ml 1M stock+45 ml miliQH2O); 10 mM ATP (5.51 mg/ml in dH2O) stored at −20° C. (diluted […] into total of 10 ml miliQH2O daily=50 μM ATP working stock); 1% BSA (1 g BSA in 100 ml 0.1 M HEPES, pH 7.5, stored at −20° C.), 100 mM MgCl2; 200 μM Staurosporine, 2× Kinase-Glo™ reagent (made fresh or stored at −20° C.).
Standard Assay Setup for 384-well format (20 μl kinase reaction, 40 μl detection reaction): 10 mM MgCl2; 100 μM Abl substrate peptide; 0.1% BSA; 1 μl test compound (in DMSO); 0.4 μg/ml Abl kinase domain; 10 μM ATP; 100 mM HEPES buffer. Positive controls contained DMSO with no test compound. Negative controls contained 10 μM staurosporine. The kinase reactions were initiated at time t=0 by the addition of ATP. Kinase reactions were incubated at 21° C. for 30 min, then 20 μl of Kinase-Glo™ reagent were added to each well to quench the kinase reaction and initiate the luminescence reaction. After a 20 min incubation at 21° C., the luminescence was detected in a plate-reading luminometer.

COc1ccccc1-c1n[nH]c2ncc(-c3ccc(C(=O)N4CCOCC4)cc3)cc12
IC50: < 1000 nM

c1ccc(-c2n[nH]c3ncc(-c4ccc5[nH]ccc5c4)cc23)cc1
IC50: < 1000 nM

CCN1CCN(C(=O)c2cccc(-c3cnc4[nH]nc(-c5cc(F)ccc5OC)c4c3)c2)CC1
IC50: < 1000 nM

CCc1ccccc1-c1n[nH]c2ncc(-c3cccc(C(=O)N4CCOCC4)c3)cc12
IC50: < 1000 nM

COc1cc(-c2cnc3[nH]nc(-c4ccccc4)c3c2)ccc1O
IC50: < 1000 nM

COc1ccccc1-c1n[nH]c2ncc(Br)cc12
IC50: < 1000 nM

O=C(c1cccc(-c2cnc3[nH]nc(-c4cccc5cccnc45)c3c2)c1)N1CCOCC1
IC50: < 1000 nM

COc1ccccc1-c1n[nH]c2ncc(-c3cccc(C(=O)N4CCN(C)CC4)c3)cc12
IC50: < 1000 nM

COc1ccccc1-c1cnc2[nH]nc(-c3ccccc3OC)c2c1
IC50: < 1000 nM

COc1ccccc1-c1n[nH]c2ncc(-c3cccc(C(=O)NC(C)C)c3)cc12
IC50: < 1000 nM

Oc1cccc(-c2cnc3[nH]nc(-c4ccccc4)c3c2)c1
IC50: < 1000 nM

Cc1ccsc1-c1n[nH]c2ncc(-c3cccc(C(=O)N4CCOCC4)c3)cc12
IC50: < 1000 nM

COc1ccccc1-c1n[nH]c2ncc(-c3cccc(C(=O)N4CCCC4)c3)cc12
IC50: < 1000 nM

COc1ccccc1-c1n[nH]c2ncc(-c3ccc(C(=O)N4CCCCC4)cc3)cc12
IC50: 1000 to 10000 nM

COc1ccccc1-c1n[nH]c2ncc(-c3cccc(C(=O)N4CCC(CO)CC4)c3)cc12
IC50: < 1000 nM

c1ccc(-c2n[nH]c3ncc(-c4cccnc4)cc23)cc1
IC50: < 1000 nM

COc1ccccc1-c1c[nH]c2ncc(-c3cccc(C(=O)N(C)C)c3)nc12
IC50: < 1000 nM

CCOc1ccccc1-c1n[nH]c2ncc(-c3cccc(C(=O)N4CCOCC4)c3)cc12
IC50: < 1000 nM

Cc1cc(F)ccc1-c1n[nH]c2ncc(-c3cccc(C(=O)N4CCOCC4)c3)cc12
IC50: < 1000 nM

COc1ccccc1-c1n[nH]c2ncc(-c3cccc(C(=O)N(C)C)c3)cc12
IC50: < 1000 nM

COc1cc(-c2cnc3[nH]cc(-c4ccc(C)cc4)c3n2)ccc1O
IC50: < 1000 nM

COc1ccccc1-c1n[nH]c2ncc(-c3cccc(S(=O)(=O)NC4CC4)c3)cc12
IC50: < 1000 nM

COc1ccccc1-c1n[nH]c2ncc(-c3ccc(O)c(C(=O)N4CCOCC4)c3)cc12
IC50: < 1000 nM

COc1ccccc1-c1n[nH]c2ncc(-c3ccc(C(=O)N4CCN(C)CC4)cc3)cc12
IC50: < 1000 nM

Cn1ccc2cc(-c3n[nH]c4ncc(-c5cccc(C(=O)N6CCOCC6)c5)cc34)ccc21
IC50: < 1000 nM

COc1ccccc1-c1n[nH]c2ncc(-c3cnc4[nH]n(C)c(=O)c4c3)cc12
IC50: < 1000 nM

O=C(c1cccc(-c2cnc3[nH]nc(-c4ccc5cc[nH]c5c4)c3c2)c1)N1CCOCC1
IC50: < 1000 nM

COc1ncc(-c2n[nH]c3ncc(-c4cccc(C(=O)N5CCOCC5)c4)cc23)c(OC)n1
IC50: < 1000 nM

COc1ccccc1-c1n[nH]c2ncc(-c3ccc(C(=O)N4CCCC4)cc3)cc12
IC50: < 1000 nM

COc1c(F)cccc1-c1n[nH]c2ncc(-c3cccc(C(=O)N4CCOCC4)c3)cc12
IC50: < 1000 nM

O=C(c1cccc(-c2cnc3[nH]nc(-c4ccncc4Cl)c3c2)c1)N1CCOCC1
IC50: < 1000 nM

COc1ccccc1-c1n[nH]c2ncc(-c3cccc(C(=O)N4CCN(CCN(C)C)CC4)c3)cc12
IC50: < 1000 nM

COc1ccccc1-c1n[nH]c2ncc(-c3ccc(C(=O)NC4CC4)cc3)cc12
IC50: < 1000 nM

COc1ccccc1-c1n[nH]c2ncc(-c3cccnc3)cc12
IC50: < 1000 nM
